From publication PMC6027465, “Benzamide-4-Sulfonamides Are Effective Human Carbonic Anhydrase I, II, VII, and IX Inhibitors” (Metabolites, 2018)

Legend:
[1] = biological target: T1, VchCAβ (Vibrio cholerae, UniProt A0A086SLX8); assay type: biochemical; details: read-out: VchCAβ; CO2 […], […] TRIS pH […] Na2SO4, […] °C, […] min preincubation
T1 construct: gene can

[2] = biological target: T2, MgCA (Malassezia globosa, UniProt A8Q1N3); test: biochemical
T2 construct: gene MGL_1814
T2 sequence (A8Q1N3 1-241): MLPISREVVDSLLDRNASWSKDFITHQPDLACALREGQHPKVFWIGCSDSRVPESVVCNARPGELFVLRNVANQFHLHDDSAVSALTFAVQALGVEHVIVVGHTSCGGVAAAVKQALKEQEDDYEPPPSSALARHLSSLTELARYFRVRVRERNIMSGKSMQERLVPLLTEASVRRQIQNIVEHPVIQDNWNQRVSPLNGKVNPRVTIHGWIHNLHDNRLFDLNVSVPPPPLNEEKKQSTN

[3] = biological target: T3, VchCAγ; assay type: biochemical, Vibrio cholerae; details: CO2 […], […] TRIS pH […] Na2SO4, […] °C, […] min preincubation
T3 construct: gene VchCAgamma

[4] = biological target: T4, hCA II (Homo sapiens, UniProt P00918); assay type: biochemical
T4 construct: gene CA2; recombinant

[5] = biological target: T5, hCA I (Homo sapiens, UniProt P00915); assay type: biochemical
T5 construct: gene CA1; recombinant

[6] = biological target: T6, hCA VII (Homo sapiens, UniProt P43166); assay type: biochemical
T6 construct: gene CA7; recombinant
T6 sequence (P43166 whole entry): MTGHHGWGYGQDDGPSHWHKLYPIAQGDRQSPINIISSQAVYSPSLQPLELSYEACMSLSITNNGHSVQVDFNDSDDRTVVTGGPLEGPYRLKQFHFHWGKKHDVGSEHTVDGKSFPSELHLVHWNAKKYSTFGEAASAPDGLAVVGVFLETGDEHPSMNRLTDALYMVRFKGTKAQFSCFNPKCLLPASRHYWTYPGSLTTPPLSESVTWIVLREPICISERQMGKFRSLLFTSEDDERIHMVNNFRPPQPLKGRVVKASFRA

T1 sequence (A0A086SLX8 1-222): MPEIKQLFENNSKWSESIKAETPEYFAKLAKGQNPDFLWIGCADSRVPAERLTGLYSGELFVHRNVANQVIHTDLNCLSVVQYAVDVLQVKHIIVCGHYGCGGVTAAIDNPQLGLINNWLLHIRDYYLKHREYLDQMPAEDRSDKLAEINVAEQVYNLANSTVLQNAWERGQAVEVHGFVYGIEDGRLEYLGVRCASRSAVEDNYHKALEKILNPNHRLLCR
T5 sequence (P00915 2-261): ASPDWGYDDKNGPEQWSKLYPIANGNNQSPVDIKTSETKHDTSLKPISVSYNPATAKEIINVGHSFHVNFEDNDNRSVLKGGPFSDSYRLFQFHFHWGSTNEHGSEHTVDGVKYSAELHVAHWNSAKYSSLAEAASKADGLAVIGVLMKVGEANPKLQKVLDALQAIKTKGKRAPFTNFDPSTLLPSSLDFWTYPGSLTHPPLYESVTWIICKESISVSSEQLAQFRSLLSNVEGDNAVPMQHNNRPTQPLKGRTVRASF

Row | Structure (SMILES) | Ki [1] [nM] | Ki [2] [nM] | Ki [3] [nM] | Ki [4] [nM] | Ki [5] [nM] | Ki [6] [nM]
1 | COC(=O)C(NC(=O)c1ccc(S(N)(=O)=O)cc1)C(C)C (racemic) [3f, Methyl (4-Sulfamoylbenzoyl)-DL-Valinate] | 8170 | 5500 | 4460 | 4.5 | 57.8 | 3.7
2 | COC(=O)C(C)NC(=O)c1ccc(S(N)(=O)=O)cc1 (racemic) [3j, Methyl (4-Sulfamoylbenzoyl)-DL-Alaninate] | 412 | 87.3 | 271 | 6.1 | 85.3 | 3.7
3 | CCNC(=O)c1ccc(S(N)(=O)=O)cc1 [3a, N-Ethyl-4-Sulfamoylbenzamide] | 7080 | 7670 | 929 | 5.3 | 334 | 26.7
4 | CCCNC(=O)c1ccc(S(N)(=O)=O)cc1 [3b, N-Propyl-4-Sulfamoylbenzamide] | 7680 | 3920 | 636 | 3.5 | 8.2 | 0.4
5 | C#CCNC(=O)c1ccc(S(N)(=O)=O)cc1 [3c, N-(Prop-2-Yn-1-Yl)-4-Sulfamoylbenzamide] | 741 | 5780 | 383 |  |  | 0.6
6 | NS(=O)(=O)c1ccc(C(=O)N2CCOCC2)cc1 [3d, 4-(Morpholine-4-Carbonyl)Benzenesulfonamide] | 8590 | 5880 | 693 | 6.2 | 8.7 | 0.8
7 | NS(=O)(=O)c1ccc(C(=O)N2CCCCC2)cc1 [3e, 4-(Piperidine-1-Carbonyl)Benzenesulfonamide] | 749 | 3980 | 453 |  |  | 
8 | COC(=O)CC[C@@H](NC(=O)c1ccc(S(N)(=O)=O)cc1)C(=O)OC [3g, Dimethyl (4-Sulfamoylbenzoyl)-D-Glutamate] | 862 | 632 | 503 | 5.2 | 8.2 | 0.6
9 | COC(=O)[C@H](CC(C)C)NC(=O)c1ccc(S(N)(=O)=O)cc1 [3h, Methyl (4-Sulfamoylbenzoyl)-L-Leucinate] | 719 | 763 | 891 | 3.7 | 5.6 | 0.4
10 | COC(=O)C[C@@H](NC(=O)c1ccc(S(N)(=O)=O)cc1)C(=O)OC [3i, Dimethyl (4-Sulfamoylbenzoyl)-D-Aspartate] | 910 | 6950 | 744 | 6.1 | 75.7 | 0.7
11 | CCOC(=O)CCCNC(=O)c1ccc(S(N)(=O)=O)cc1 [3k, Ethyl 4-(4-Sulfamoylbenzamido)Butanoate] | 953 | 6690 | 756 | 4 | 5.3 | 0.4
12 | COC(=O)[C@H](Cc1ccccc1)NC(=O)c1ccc(S(N)(=O)=O)cc1 [3l, Methyl (4-Sulfamoylbenzoyl)-L-Phenylalaninate] | 663 | 517 | 409 | 3.3 | 5.6 | 0.5
